# Reference: EP1773779B1, “NICOTINIC RECEPTOR AGONISTS FOR THE TREATMENT OF INFLAMMATORY DISEASES” (Université Laval, priority 2004, dated 2006)
# Key:
# [1] = system: mouse tracheal airway smooth muscle; assay: Isometric study on isolated mouse tracheal rings pre-contracted with metacholine; details: cumulative doses of ASM-002; Fig. 34, p=0.002
# Protocol: Tracheal rings were mounted isometrically to force transducers in organ baths containing Krebs bicarbonate solution at 37°C and bubbled with 95% O2- 5% CO2, pre-contracted with submaximal concentration of metacholine (10^-5) and cumulative doses of the analogs were added to the baths. Changes of tension are recorded. Results are expressed as a percentage of maximal contraction (Fig. 29).
# (§1) As described previously, tracheal or bronchial rings were mounted isometrically to force transducers in organ baths containing Krebs bicarbonate solution at 37°C and bubbled with 95% O2- 5% CO2,pre-contracted with submaximal concentration of metacholine cumulative doses of ASM-002 added. Changes of tension are recorded.
# [2] = system: Leukotriene C4 (LTC4)production; assay: LTC4 production by PAF-stimulated blood eosinophils (enzyme immunoassay); assay type: cell-based, Human; details: for LTC4: pre-incubated 18hours with analogs, then 1 µM PAF, untreated 1725.80
# Protocol: Blood eosinophils, the most increased inflammatory cells in asthma, were isolated by negative selection using bead-conjugated anti-CD16 monoclonal antibody and magnetic activating cell sorting. Cells were pre-incubated for 18hours with the various DMPP analogs and then stimulated with 1 µM platelet-activating factor (PAF) to produce LTC4 which was measured by enzyme immunoassay. […] Table 1 Effects of DMPP and analogs on LTC4 release.
# Leukotriene C4 (LTC4) is a inflammatory lipid mediator highly produced in asthma, it is released in large amounts by blood eosinophils.
# Human blood eosinophils were isolated from blood of asthmatic patients, stimulated in vitro with platelet activating factor (PAF) to produce large amounts of LTC4 , and treated or not with 80 µM ASM-002.
# [3] = system: Ovalbumin-sensitized mice; assay: Lung inflammation in ovalbumin-sensitized mice (cells in broncho-alveolar lavage); assay type: in vivo; details: intra-nasally 0.5 to 4 mg/kg/d for 3 days, n = 8, Fig. 30
# Protocol: Ovalbumin-sensitized mice (ri=8) were challenged with the allergen and simultaneously treated intra-nasally with increasing concentrations of ASM-002 (0.5 to 4 mg/kg/d) for 3 days. The number of cells recovered by broncho-alveolar lavage was used as a measure of lung inflammation.
# [4] = system: Tumor necrosis factor (TNF) release; assay: TNF release by LPS-stimulated human blood monocytes (ELISA); assay type: cell-based
# Protocol: Human monocytes were isolated from the blood of asthmatic patients by Ficoll-paque density gradient, let to adhere to tissue culture plates and stimulated with LPS (100ng/ml) for 18 hours at 37°C with or without increasing concentrations of nicotine. The release of TNF, a potent pro-inflammatory mediator, was measured in the cell culture supernatant by the ELISA method. Results are expressed as a percentage release from LPS-stimulated untreated cells (Fig. 28).
# Tumor necrosis factor (TNF) is a mediator released in inflammatory states. Human blood monocytes were stimulated in vitro with lipopolysaccharide (LPS) to produce large amounts of TNF, increasing doses of ASM-002 were added and the levels of TNF were measured (Fig. 37, EC50= 3µM, n=6, p= 0,0045 at 5 µm, 0,0014 at 10 µm and 0,0003 at 50 µm).
# [5] = system: dogs naturally sensitized to the roundworm Ascaris suum; assay: Dog model of lung hyper-responsiveness (metacholine, lung resistance); assay type: in vivo; details: 12 hyperresponsive dogs, increasing concentrations of metacholine; Fig. 33
# Protocol: (§2) In this model 12 dogs naturally sensitized to the roundworm Ascaris suum were used in a cross-over study design. Four groups of 3 dogs were randomly formed, exposed to the allergen, and each animal was left either untreated or received alternalively, ASM-002 (4mg/kg 2x day in the food), or prednisone (1mg/kg 1x day in the food), the most commonly used corticosteroid drug used to treat inflammation in asthma.
# Hyper-responsiveness is described as the capacity of the lung to react (to increase lung resistance) to a non-specific external stimuli like metacholine or to allergens. A hyper-responsive allergen-sensitized dog (asthmatic) will react to lower concentrations of metacholine compared to a non allergic dog. Similarly, improvement in lung hyper-responsivenes is shown by an increase in metacholine concentrations necessary to induce the same level of lung resistance.
# Increasing concentrations of metacholine were administered with or without treatment with ASM-002 or Prednisone™ and lung resistance recorded.
# [6] = system: Ovalbumin-sensitized animals; assay: Lung resistance to metacholine in mouse model of asthma (Flexi-vent); assay type: in vivo, mice; details: ASM-002 4mg/kg intra-nasally 3 days and 10 minutes prior to challenge; Salbutamol 10 minutes before; Fig. 31
# Protocol: Lung response to a broncho-constrictive agent, metacholine, was measured by a Flexi-vent® apparatus. Ovalbumin-sensitized animals were treated intra-nasally with ASM-002 (4mg/kg) during 3 days and 10 minutes prior to the metacholine challenge and compared to untreated OVA-sensitized animals. A negative control group of un-sensitized animals and a positive control group that received Salbutamol (Ventolin) 10 minutes before the metacholine challenge were also included.
# [7] = system: bronchial rings from dog's lungs; assay: Isometric study on dog bronchial rings pre-contracted with metacholine; details: cumulative doses of ASM-002; Fig. 35, p=0.004
# Protocol: as §1
# [8] = system: bronchial rings from resected human lungs; assay: Isometric study on human bronchial rings pre-contracted with metacholine; details: cumulative doses of ASM-002; Fig. 36
# Protocol: as §1
# [9] = system: dogs naturally sensitized to the roundworm Ascaris suum; assay: Dog asthma model: cellular inflammation in bronchoalveolar lavages; assay type: in vivo; details: ASM-002 8 mg/kg (4mg/kg 2x day in the food), prednisone 1mg/kg 1x day in the food, n = 12; Fig. 32
# Protocol: as §2
# Cellular inflammation was evaluated in the bronchoalveolar lavages.
compound,measurement,setting,value
"1,1-dimethyl-4-phenylhomopiperazinium iodide [ASM-002]",relaxing effect on pre-contracted tracheas,[1],relaxing effect
same,LTC4 production,"[2]; 80 µM, PAF-stimulated eosinophils of asthmatic patients, 6 patients, Fig. 39, p=0.0007",significant inhibition
same,LTC4,[2],246.40 pg/mL
same,"ED50, cellular inflammation in the lungs",[3],0.71 mg/kg
same,EC50,"[4]; LPS-stimulated human blood monocytes, increasing doses, n=6, Fig. 37, read-out: EC50, inhibition of TNF release",3 µM
same,TNF release,"[4]; all drugs at 40 µM, mean of 5 subjects, Fig. 38",inhibits TNF release
same,dogs with decreased lung resistance / improved hyper-responsiveness,[5],7 out of 12
same,lung resistance induced by metacholine,[6],significant reduction (return to baseline levels)
same,relaxing effect on pre-contracted bronchi,[7],relaxing effect
same,relaxing effect on pre-contracted bronchi,[8],relaxing effect
same,cellular inflammation in the lungs,[9],inhibits significantly the cellular inflammation
CCC[N+]1(C)CCN(c2ccccc2)CC1 [ASM-004],LTC4,[2],601.60 pg/mL
CC[N+]1(CC)CCN(c2ccccc2)CC1 [ASM-005],TNF release,"[4]; monocytes from asthmatic patients, LPS (100ng/ml) 18 hours at 37°C, increasing concentrations, Fig. 28","Except for ASM-005, all analogs tested had an inhibitory effect on TNF release"
"C[N+]1(C)CCN(c2ccccc2)CC1 [DMPP, Dimethylphenylpiperazinium, reference compound]",LTC4,[2],545.00 pg/mL
"C[C@]12C=CC(=O)C=C1CC[C@@H]1[C@@H]2C(=O)C[C@@]2(C)[C@H]1CC[C@]2(O)C(=O)CO [Prednisone, prednisone, reference compound]",dogs with decreased lung resistance / improved hyper-responsiveness,[5],None of the 12 dogs
"CC(C)(C)NCC(O)c1ccc(O)c(CO)c1 (stereo not shown) [Salbutamol, reference compound]",lung resistance induced by metacholine,[6],This effect is similar to that obtained with Salbutamol
